From patent publication US9549917B2, “Heterocyclic-substituted benzofuran derivatives and methods of use thereof for the treatment of viral diseases” (priority 2011, dated 2017)

Experiments:
HCV replicon genotype 1a = test: HCV replicon assay, genotype 1a (cell ELISA for NS3/4A); format: cell-based; conditions: Hepatitis C virus, 96 h, read-out: 1a IC50 (nM)
Description: (§1) Measurement of inhibition by compounds was performed using the HCV replicon system. Several different replicons encoding different HCV genotypes or mutations were used. In addition, potency measurements were made using different formats of the replicon assay, including different ways of measurements and different plating formats. See Jan M. Vrolijk et al., A replicons-based bioassay for the measurement of interferons in patients with chronic hepatitis C, 110 J. V[…] 201 (2003); Steven S. Carroll et al., Inhibition of Hepatitis C Virus RNA Replication by 2′-Modified Nucleoside Analogs, 278(14) J. BIOLOGICAL CHEMISTRY 11979 (2003). However, the underlying principles are common to all of these determinations, and are outlined below.
(§2) Stable neomycin phosphotransferase encoding replicons-harboring cell lines were used, so all cell lines were maintained under G418 selection prior to the assay. Potency was determined using a cell ELISA assay with an antibody to the replicons encoded NS3/4a protease. See Caterina Trozzi et al., In Vitro Selection and Characterization of Hepatitis C Virus Serine Protease Variants Resistant to an Active-Site Peptide Inhibitor, 77(6) J. Virol. 3669 (2003). To initiate an assay, replicon cells were plated in the presence of a dilution series of test compound in the absence of G418. Typically, the assays were performed in a 96-well plate formate for manual operation, or a 384-well plate format for automated assay. Replicon cells and compound were incubated for 96 hours. At the end of the assay, cells were washed free of media and compound, and the cells were then lysed. RNA was quantified indirectly through detection of replicon-encoded NS3/4A protein levels, through an ELISA-based assay with an antibody specific for NS3/4A. IC50 determinations were calculated as a percentage of a DMSO control by fitting the data to a four-parameter fit function and the data obtained is provided in the table below.
(§3) Data for selected compounds of the present invention was obtained for genotypes 1a and 1b using this method and is provided in the table below: […]

HCV replicon genotype 1b = test: HCV replicon assay, genotype 1b (cell ELISA for NS3/4A); format: cell-based; conditions: Hepatitis C virus, 96 h, read-out: 1b IC50 (nM)
Description: as §1, §2, §3

With `CNC(=O)c1c(-c2ccc(F)cc2)oc2cc(N(C)S(C)(=O)=O)c(-c3cc(-c4[nH]c5ccccc5c4C)cnn3)cc12` [Compound 289] the IC50 (HCV replicon genotype 1a) was 54 nM and the IC50 (HCV replicon genotype 1b) was 22 nM.

In the case of `CNC(=O)c1c(-c2ccc(F)cc2)oc2cc(N(C)S(C)(=O)=O)c(-c3cc(-c4cc5c(F)cccc5[nH]4)nnc3C)cc12` [Compound 268], the IC50 (HCV replicon genotype 1a) is reported as 5.3 nM and the IC50 (HCV replicon genotype 1b) is reported as 6.1 nM.

With `CNC(=O)c1c(-c2ccc(F)cc2)oc2cc(N(C)S(C)(=O)=O)c(-c3cnnc(N4Cc5c(F)cccc5C4=O)c3)cc12` [Compound 281] the IC50 (HCV replicon genotype 1a) was 22.3 nM and the IC50 (HCV replicon genotype 1b) was 4.8 nM.

For `CNC(=O)c1c(-c2ccc(F)cc2)oc2cc(N(C)S(C)(=O)=O)c(-c3cnc(OC)c(-c4cc5cccc(F)c5[nH]4)n3)cc12` [Compound 226], the IC50 (HCV replicon genotype 1a) was 3.4 nM and the IC50 (HCV replicon genotype 1b) was 7.2 nM.

`CNC(=O)c1c(-c2ccc(F)cc2)oc2cc(N(C)S(C)(=O)=O)c(-c3cc(-c4cc5c(C#N)cccc5[nH]4)nnc3C)cc12` [Compound 266] showed an IC50 (HCV replicon genotype 1a) of 3.2 nM and an IC50 (HCV replicon genotype 1b) of 3 nM.

Work on `CNC(=O)c1c(-c2ccc(F)cc2)oc2cc(N(C)S(C)(=O)=O)c(-c3cnc(OC)c(-c4cc5c(C#N)cccc5[nH]4)n3)cc12` [Compound 225] yielded an IC50 (HCV replicon genotype 1a) of 4.7 nM and an IC50 (HCV replicon genotype 1b) of 7 nM.

`CNC(=O)c1c(-c2ccc(F)cc2)oc2cc(N(C)S(C)(=O)=O)c(-c3cnnc(-n4cc5c(F)cccc5n4)c3)cc12` [Compound 265] was tested, and the IC50 (HCV replicon genotype 1a) was 4.5 nM and the IC50 (HCV replicon genotype 1b) was 4.1 nM.

For `CNC(=O)c1c(-c2ccc(F)cc2)oc2cc(N(C)S(C)(=O)=O)c(-c3cc(-c4cc5c(F)cccc5[nH]4)ncc3Cl)cc12` [Compound 292], the IC50 (HCV replicon genotype 1a) was 12 nM and the IC50 (HCV replicon genotype 1b) was 13 nM.

`CNC(=O)c1c(-c2ccc(F)cc2)oc2cc(N(C)S(C)(=O)=O)c(-c3ccc(O)c(-c4cc5ccccn5n4)n3)cc12` [Compound 255] was tested, and the IC50 (HCV replicon genotype 1a) was 1450 nM and the IC50 (HCV replicon genotype 1b) was 104 nM.

`CNC(=O)c1c(-c2ccc(F)cc2)oc2cc(N(C)S(C)(=O)=O)c(-c3cncc(-c4cc5cccc(F)c5[nH]4)n3)cc12` [Compound 139] gave an IC50 (HCV replicon genotype 1a) of 0.8 nM and an IC50 (HCV replicon genotype 1b) of 0.8 nM.

For `CNC(=O)c1c(-c2ccc(F)cc2)oc2cc(N(C)S(C)(=O)=O)c(-c3cc(-c4cc5c(F)cccc5[nH]4)cnn3)cc12` [Compound 263], the IC50 (HCV replicon genotype 1a) was 3.2 nM and the IC50 (HCV replicon genotype 1b) was 2.4 nM.

Molecule `CNC(=O)c1c(-c2ccc(F)cc2)oc2cc(N(C)S(C)(=O)=O)c(-c3cc(-c4cc5ccccc5[nH]4)nc(OC)n3)cc12` [Compound 150, 5-(6-(1H-indol-2-yl)-2-methoxypyrimidin-4-yl)-2-(4-fluorophenyl)-N-methyl-6-(N-methylmethylsulfonamido)benzofuran-3-carboxamide] has an IC50 (HCV replicon genotype 1a) of 3.2 nM and an IC50 (HCV replicon genotype 1b) of 5.1 nM.

`CNC(=O)c1c(-c2ccc(F)cc2)oc2cc(N(C)S(C)(=O)=O)c(-c3cc(-c4nc5c(o4)CCCC5(F)F)ccn3)cc12` [Compound 95] was tested, and the IC50 (HCV replicon genotype 1a) was 0.9 nM and the IC50 (HCV replicon genotype 1b) was 1.1 nM.

`CNC(=O)c1c(-c2ccc(F)cc2)oc2cc(N(C)S(C)(=O)=O)c(-c3cc(-c4cc5ccccc5[nH]4)nc(C#N)n3)cc12` [Compound 151] showed an IC50 (HCV replicon genotype 1a) of 7.7 nM and an IC50 (HCV replicon genotype 1b) of 3.7 nM.

`CNC(=O)c1c(-c2ccc(F)cc2)oc2cc(N(C)S(C)(=O)=O)c(-c3ccnc(-c4cc5ccccc5[nH]4)c3)cc12` [Compound 109] showed an IC50 (HCV replicon genotype 1a) of 0.4 nM and an IC50 (HCV replicon genotype 1b) of 1 nM.

In the case of `CNC(=O)c1c(-c2ccc(F)cc2)oc2cc(N(C)S(C)(=O)=O)c(-c3cncc(-c4cc5c(F)cccc5[nH]4)n3)cc12` [Compound 121], the IC50 (HCV replicon genotype 1a) is reported as 0.8 nM and the IC50 (HCV replicon genotype 1b) is reported as 1.2 nM.

In the case of `CNC(=O)c1c(-c2ccc(F)cc2)oc2cc(N(C)S(C)(=O)=O)c(-c3nnc(-c4cc5c(F)cccc5[nH]4)o3)cc12` [Compound 256, 5-(5-(4-fluoro-1H-indol-2-yl)-1,3,4-oxadiazol-2-yl)-2-(4-fluorophenyl)-N-methyl-6-(N-methylmethylsulfonamido)benzofuran-3-carboxamide], the IC50 (HCV replicon genotype 1a) is reported as 0.4 nM and the IC50 (HCV replicon genotype 1b) is reported as 0.7 nM.

Molecule `CNC(=O)c1c(-c2ccc(F)cc2)oc2cc(N(C)S(C)(=O)=O)c(-c3nc(-c4cc5ccccc5[nH]4)c(OC)cc3OC)cc12` [Compound 224] has an IC50 (HCV replicon genotype 1a) of 99 nM and an IC50 (HCV replicon genotype 1b) of 31 nM.

`CNC(=O)c1c(-c2ccc(F)cc2)oc2cc(N(C)S(C)(=O)=O)c(-c3cc(-c4cc5c(F)cccc5[nH]4)ncc3-c3cc4c(F)cccc4[nH]3)cc12` [Compound 290] showed an IC50 (HCV replicon genotype 1a) of 9.8 nM and an IC50 (HCV replicon genotype 1b) of 10 nM.

`CNC(=O)c1c(-c2ccc(F)cc2)oc2cc(N(C)S(C)(=O)=O)c(-c3cnnc(-c4cc5c(OC)cccc5[nH]4)c3)cc12` [Compound 282] showed an IC50 (HCV replicon genotype 1a) of 3.3 nM and an IC50 (HCV replicon genotype 1b) of 1.8 nM.

Molecule `CNC(=O)c1c(-c2ccc(F)cc2)oc2cc(N(C)S(C)(=O)=O)c(-c3cncc(-c4nc5c(s4)C4CCC5C4)c3)cc12` (stereo not shown) [Compound 182] has an IC50 (HCV replicon genotype 1a) of 4.4 nM and an IC50 (HCV replicon genotype 1b) of 4.3 nM.

With `CNC(=O)c1c(-c2ccc(F)cc2)oc2cc(N(C)S(C)(=O)=O)c(-c3cc(-c4nc5ccccc5o4)cnn3)cc12` [Compound 271] the IC50 (HCV replicon genotype 1a) was 14 nM and the IC50 (HCV replicon genotype 1b) was 10 nM.

Molecule `CNC(=O)c1c(-c2ccc(F)cc2)oc2cc(N(C)S(C)(=O)=O)c(-c3cc(-c4cc5c(F)cccc5[nH]4)nnc3OC)cc12` [Compound 223] has an IC50 (HCV replicon genotype 1a) of 2.8 nM and an IC50 (HCV replicon genotype 1b) of 4.5 nM.

`CNC(=O)c1c(-c2ccc(F)cc2)oc2cc(N(C)S(C)(=O)=O)c(-c3cc(-c4cc5ccccc5[nH]4)c(OC)cn3)cc12` [Compound 202] showed an IC50 (HCV replicon genotype 1a) of 8.4 nM and an IC50 (HCV replicon genotype 1b) of 7.6 nM.

`CNC(=O)c1c(-c2ccc(F)cc2)oc2ccc(-c3cc(-c4cc5c(F)cccc5[nH]4)nnc3C)cc12` [Compound 270] gave an IC50 (HCV replicon genotype 1a) of 42 nM and an IC50 (HCV replicon genotype 1b) of 36 nM.

Molecule `CNC(=O)c1c(-c2ccc(F)cc2)oc2cc(N(C)S(C)(=O)=O)c(-c3ccc(-c4nc5c(F)cccc5o4)s3)cc12` [Compound 157] has an IC50 (HCV replicon genotype 1a) of 0.9 nM and an IC50 (HCV replicon genotype 1b) of 1.5 nM.

In the case of `CNC(=O)c1c(-c2ccc(F)cc2)oc2cc(N(C)S(C)(=O)=O)c(-c3ncc(OC)c(-c4cc5c(C#N)cccc5[nH]4)n3)cc12` [Compound 214], the IC50 (HCV replicon genotype 1a) is reported as 33 nM and the IC50 (HCV replicon genotype 1b) is reported as 9.9 nM.

In the case of `CNC(=O)c1c(-c2ccc(F)cc2)oc2cc(N(C)S(C)(=O)=O)c(-c3cnnc(-c4[nH]c5ccccc5c4C)c3)cc12` [Compound 288], the IC50 (HCV replicon genotype 1a) is reported as 75 nM and the IC50 (HCV replicon genotype 1b) is reported as 25 nM.

`CNC(=O)c1c(-c2ccc(F)cc2)oc2cc(N(C)S(C)(=O)=O)c(-c3cc(-c4cc5c(F)cccc5[nH]4)ncc3OC)cc12` [Compound 293] gave an IC50 (HCV replicon genotype 1a) of 131 nM and an IC50 (HCV replicon genotype 1b) of 41 nM.

Molecule `CNC(=O)c1c(-c2ccc(F)cc2)nn2cc(N(C)S(C)(=O)=O)c(-c3nccc(-c4cc5ccccc5[nH]4)n3)cc12` [Compound 210] has an IC50 (HCV replicon genotype 1a) of 11 nM and an IC50 (HCV replicon genotype 1b) of 4.7 nM.

Molecule `CNC(=O)c1c(-c2ccc(F)cc2)oc2cc(N(C)S(C)(=O)=O)c(-c3cncc(-c4nc5ccccc5s4)c3)cc12` [Compound 62] has an IC50 (HCV replicon genotype 1a) of 2 nM and an IC50 (HCV replicon genotype 1b) of 1.2 nM.

With `CNC(=O)c1c(-c2ccc(F)cc2)oc2cc(N(C)S(C)(=O)=O)c(-c3cc(N4Cc5cccc(F)c5C4)ncc3Cl)cc12` [Compound 291] the IC50 (HCV replicon genotype 1a) was 4.8 nM and the IC50 (HCV replicon genotype 1b) was 8 nM.

In the case of `CNC(=O)c1c(-c2ccc(F)cc2)oc2cc(N(C)S(C)(=O)=O)c(-c3cnnc(-c4cc5c(F)cccc5[nH]4)c3)cc12` [Compound 259], the IC50 (HCV replicon genotype 1a) is reported as 1.1 nM and the IC50 (HCV replicon genotype 1b) is reported as 2.6 nM.

`CNC(=O)c1c(-c2ccc(F)cc2)oc2cc(N(C)S(C)(=O)=O)c(-c3cc(N4Cc5cccc(F)c5C4)ncc3OC)cc12` [Compound 294] showed an IC50 (HCV replicon genotype 1a) of 54 nM and an IC50 (HCV replicon genotype 1b) of 22 nM.

`CNC(=O)c1c(-c2ccc(F)cc2)oc2cc(N(C)S(C)(=O)=O)c(-c3nc(-c4cc5c(F)cccc5[nH]4)ns3)cc12` [Compound 258] showed an IC50 (HCV replicon genotype 1a) of 2.6 nM and an IC50 (HCV replicon genotype 1b) of 2.5 nM.
